Patent publication US7229630B2, “Stabilized formulations of alpha adrenergic receptor antagonists and the uses thereof” (Novalar Pharmaceuticals, Inc., priority 2002, dated 2007)
Counter-ions that a name gives are not always drawn.

Columns and labels:
[1] = Effect of buffer concentration on stability at 60° C. (HPLC, pH); type: physicochemical; details: for pH: 60° C.
Protocol: The drug is monitored at a detection wavelength of 232 nm.
Tightly sealed glass vials containing the test solutions were placed in an oven at 40° C. or 60° C. All samples were stored in the dark. Aliquots were removed at designated time points for HPLC analysis and pH measurement. All samples were analyzed without dilution.
In conjunction with HPLC analysis, pH was measured. The measurement was performed using the same samples as used for the HPLC analysis. The pH meter was calibrated using pH 4.00 and 7.00 buffer standards prior to each measurement.
Samples were incubated at 60° C. with scheduled testing performed at day 0, 2, 7, and 14. The various buffer concentrations were prepared by diluting the 50 mM buffer with water and re-examining the pH value to determine if the pH 3.5 was constant. Measurements of pH were performed after HPLC analysis of the samples.

healthy adult volunteers = assay: Reversal of soft-tissue anesthesia after inferior alveolar nerve block, proof-of-principle trial; type: in vivo, human; details: 0.2 mg in 1.8 ml
Protocol: The objective of this proof-of-principle trial was to evaluate the feasibility of reversing soft-tissue anesthesia by pharmacologically blocking the effects of epinephrine. […] Subjects self-evaluated the return of normal sensation in their lip, chin, tongue, nose, and teeth by palpations at 5-minute intervals starting at 5 minutes before the study drug injection and continuing for approximately 4–5 hours. To avoid biased responding, subjects were told that they could not leave the clinic for 8 hours after the last injection. Responses for soft tissues were categorized as (1) numb (no feeling), (2) feeling of pins and needles, or (3) normal sensation. Responses for teeth were (1) numb (no feeling) or (2) normal sensation. Safety was evaluated through reports of adverse events, measurement of vital signs and two-lead electrocardiograms before, during, and after the injections of anesthetic and study drug, and through pain assessments using visual analog scales.

[2] = system: healthy adult volunteer subjects; assay: Dose range study of reversal of local anesthesia after maxillary infiltration; type: in vivo, human
Protocol: Four groups of eight healthy adult volunteer subjects were given an infiltration of the lateral incisor using one 1.8 ml cartridge of lidocaine 2% with epinephrine 1:100,000. […] Subjects palpated their upper lip, nose, and teeth every five minutes for the next five hours after injections.

[3] = 0 mM sodium acetate (un-buffered) pH 3.5, 60° C., Day 0
[4] = 0 mM sodium acetate (un-buffered) pH 3.5, 60° C., Day 2
[5] = 0 mM sodium acetate (un-buffered) pH 3.5, 60° C., Day 7
[6] = 0 mM sodium acetate (un-buffered) pH 3.5, 60° C., Day 14
[7] = 5 mM sodium acetate pH 3.5, 60° C., Day 0
[8] = 5 mM sodium acetate pH 3.5, 60° C., Day 2
[9] = 5 mM sodium acetate pH 3.5, 60° C., Day 7
[10] = 5 mM sodium acetate pH 3.5, 60° C., Day 14
[11] = 10 mM sodium acetate pH 3.5, 60° C., Day 0
[12] = 10 mM sodium acetate pH 3.5, 60° C., Day 2
[13] = 10 mM sodium acetate pH 3.5, 60° C., Day 7
[14] = 10 mM sodium acetate pH 3.5, 60° C., Day 14
[15] = 50 mM sodium acetate pH 3.5, 60° C., Day 7
[16] = 50 mM sodium acetate pH 3.5, 60° C., Day 14

For `Cc1ccc(N(CC2=NCCN2)c2cccc(O)c2)cc1` [Phentolamine Mesylate, phentolamine mesylate], the “Phentolamine Concentration” value [1, 3] was 90 µg/mL, the “Phentolamine Purity” value [1, 3] was 99 % peak area and the “Phentolamine Concentration” value [1, 4] was 92 µg/mL. For the same compound, the “Phentolamine Purity” value [1, 4] was 99 % peak area, the “Phentolamine Concentration” value [1, 5] was 82 µg/mL and the “Phentolamine Purity” value [1, 5] was 98 % peak area. For the same compound, the “Phentolamine Concentration” value [1, 6] was 77 µg/mL, the “Phentolamine Purity” value [1, 6] was 97 % peak area and the pH ([1]; 0 mM sodium acetate (un-buffered), Day 0) was 3.6. For the same compound, the pH ([1]; 0 mM sodium acetate (un-buffered), Day 2) was 4.4, the pH ([1]; 0 mM sodium acetate (un-buffered), Day 7) was 5.1 and the pH ([1]; 0 mM sodium acetate (un-buffered), Day 14) was 5.3. For the same compound, the “Phentolamine Concentration” value [1, 7] was 99 µg/mL, the “Phentolamine Purity” value [1, 7] was 99 % peak area and the “Phentolamine Concentration” value [1, 8] was 97 µg/mL. The “Phentolamine Purity” value [1, 8] was 99 % peak area, the “Phentolamine Concentration” value [1, 9] was 94 µg/mL and the “Phentolamine Purity” value [1, 9] was 98 % peak area. The “Phentolamine Concentration” value [1, 10] was 92 µg/mL, the “Phentolamine Purity” value [1, 10] was 98 % peak area and the pH ([1]; 5 mM sodium acetate, Day 0) was 3.5. The pH ([1]; 5 mM sodium acetate, Day 2) was 3.8, the pH ([1]; 5 mM sodium acetate, Day 7) was 3.8 and the pH ([1]; 5 mM sodium acetate, Day 14) was 3.8. The “Phentolamine Concentration” value [1, 11] was 100 µg/mL, the “Phentolamine Purity” value [1, 11] was 99 % peak area and the “Phentolamine Concentration” value [1, 12] was 97 µg/mL. For the same compound, the “Phentolamine Purity” value [1, 12] was 99 % peak area, the “Phentolamine Concentration” value [1, 13] was 96 µg/mL and the “Phentolamine Purity” value [1, 13] was 98 % peak area. For the same compound, the “Phentolamine Concentration” value [1, 14] was 92 µg/mL, the “Phentolamine Purity” value [1, 14] was 98 % peak area and the pH ([1]; 10 mM sodium acetate, Day 0) was 3.5. It also gave a pH ([1]; 10 mM sodium acetate, Day 2) of 3.7, a pH ([1]; 10 mM sodium acetate, Day 7) of 3.8 and a pH ([1]; 10 mM sodium acetate, Day 14) of 3.7. The “Phentolamine Purity” value ([1]; 50 mM sodium acetate pH 3.5, 60° C., Day 0) was 98 % peak area, the “Phentolamine Purity” value ([1]; 50 mM sodium acetate pH 3.5, 60° C., Day 2) was 98 % peak area and the “Phentolamine Concentration” value [1, 15] was 99 µg/mL. For the same compound, the “Phentolamine Purity” value [1, 15] was 98 % peak area, the “Phentolamine Concentration” value [1, 16] was 96 µg/mL and the “Phentolamine Purity” value [1, 16] was 96 % peak area. For the same compound, the pH ([1]; 50 mM sodium acetate, Day 0) was 3.5, the pH ([1]; 50 mM sodium acetate, Day 2) was 3.6 and the pH ([1]; 50 mM sodium acetate, Day 7) was 3.6. For the same compound, the pH ([1]; 50 mM sodium acetate, Day 14) was 3.6, the “rate of degradation vs un-buffered control (0 mM)” value ([1]; 5, 10 and 50 mM sodium acetate, pH 3.5, 60° C.) was “comparable and was an improvement over the un-buffered control” and the electrocardiogram (healthy adult volunteers) was “no abnormalities”. The duration of anesthesia (healthy adult volunteers; 60 minutes after 2% lidocaine with 1:100,000 epinephrine, vs saline, each tissue) was “significantly (p<0.01) reduced”, the Adverse effects (healthy adult volunteers; vs placebo) was “few and no differences were noted between the active and placebo groups” and the electrocardiogram ([2]; 0.02 mg, 0.08 mg, 0.4 mg in 1.8 ml) was “no abnormalities”. For the same compound, the Adverse events ([2]; 0.02 mg, 0.08 mg, 0.4 mg in 1.8 ml, vs placebo) was “few and no differences were noted between the active and placebo groups” and the duration of anesthesia ([2]; all doses tested (0.02 mg, 0.08 mg, 0.4 mg in 1.8 ml), 40 minutes after lidocaine 2% with epinephrine 1:100,000, vs saline, each measured tissue) was “significantly (p<0.01) reduced”.
